This test deals with Lewis lung carcinoma i.m., BDF1 mice, T/C %. As to the kind of experiment: NCI In Vivo Anticancer Drug Screen. Data for tumor model Lewis Lung Carcinoma (intramuscular) in B6D2F1 (BDF1) mice. Put shortly:
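Tumour-bearing mice were dosed with compound, and either their survival or their tumour size was measured. Results were expressed relative to vehicle-treated controls as T/C.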

The mark [1] stands for this setting: endpoint: mean tumor weight (est.), dose: 100.0 mg/kg/injection, schedule: Q01DX011 (ip), vehicle: saline with Tween-80, higher = larger tumour.
Where [2] appears, read: endpoint: median survival time, dose: 100.0 mg/kg/injection, schedule: Q01DX011 (ip), vehicle: saline with Tween-80, higher = longer survival.
Setting [3] is: endpoint: mean tumor weight (est.), dose: 12.5 mg/kg/injection, schedule: Q01DX011 (ip), vehicle: saline, higher = larger tumour.

Where “and” joins values, the source holds several entries; their conditions need not be identical. Identical values can stand only once. Results filed as inconclusive are left out.

In the case of `COc1c(C)c2c(c(O)c1C/C=C(\C)CCC(=O)O)C(=O)OC2`, the T/C runs as follows: (endpoint: mean tumor weight (est.), dose: 25.0 mg/kg/injection, schedule: Q01DX011 (ip), vehicle: saline with Tween-80, higher = larger tumour) 98 % of control; (endpoint: mean tumor weight (est.), dose: 50.0 mg/kg/injection, schedule: Q01DX011 (ip), vehicle: saline with Tween-80, higher = larger tumour) 71 % of control; under setting [1], 57 % of control; (endpoint: mean tumor weight (est.), dose: 200.0 mg/kg/injection, schedule: Q01DX011 (ip), vehicle: saline with Tween-80, higher = larger tumour) 27 % of control; (endpoint: median survival time, dose: 25.0 mg/kg/injection, schedule: Q01DX011 (ip), vehicle: saline with Tween-80, higher = longer survival) 97 % of control; (endpoint: median survival time, dose: 50.0 mg/kg/injection, schedule: Q01DX011 (ip), vehicle: saline with Tween-80, higher = longer survival) 106 % of control. Also, the T/C under setting [2] was 100 % of control.
`CN1Cc2c(ccc3c2OCO3)[C@@H]2[C@H](O)Cc3cc4c(cc3[C@@H]21)OCO4`: the T/C was 75 % of control (endpoint: mean tumor weight, dose: 62.5 mg/kg/injection, schedule: Q01DX011 (ip), vehicle: saline, higher = larger tumour); 47 % of control (endpoint: mean tumor weight, dose: 125.0 mg/kg/injection, schedule: Q01DX011 (ip), vehicle: saline, higher = larger tumour); 32 % of control (endpoint: mean tumor weight, dose: 500.0 mg/kg/injection, schedule: Q01DX011 (ip), vehicle: saline, higher = larger tumour); 91 % of control (endpoint: median survival time, dose: 62.5 mg/kg/injection, schedule: Q01DX011 (ip), vehicle: saline, higher = longer survival); 95 % of control (endpoint: median survival time, dose: 125.0 mg/kg/injection, schedule: Q01DX011 (ip), vehicle: saline, higher = longer survival); 93 % of control (endpoint: median survival time, dose: 500.0 mg/kg/injection, schedule: Q01DX011 (ip), vehicle: saline, higher = longer survival).
As to `Clc1ccc(C(c2ccccc2Cl)C(Cl)Cl)cc1` (centres undefined), the T/C is, setting by setting: (endpoint: median survival time, dose: 50.0 mg/kg/injection, schedule: Q01DX011 (ip), vehicle: Klucel (hydroxypropylcellulose) (HPC), higher = longer survival) 88 % of control; (endpoint: median survival time, dose: 100.0 mg/kg/injection, schedule: Q01DX011 (ip), vehicle: Klucel (hydroxypropylcellulose) (HPC), higher = longer survival) 95 % of control.
In the case of `Cc1cc[n+](CCc2ccccc2)cc1`, the T/C under setting [3] was 76 % of control; the T/C (endpoint: mean tumor weight (est.), dose: 25.0 mg/kg/injection, schedule: Q01DX011 (ip), vehicle: saline, higher = larger tumour) is 95 % of control; the T/C (endpoint: mean tumor weight (est.), dose: 50.0 mg/kg/injection, schedule: Q01DX011 (ip), vehicle: saline, higher = larger tumour) is 75 % of control; the T/C (endpoint: median survival time, dose: 12.5 mg/kg/injection, schedule: Q01DX011 (ip), vehicle: saline, higher = longer survival) is 94 % of control; the T/C (endpoint: median survival time, dose: 25.0 mg/kg/injection, schedule: Q01DX011 (ip), vehicle: saline, higher = longer survival) is 102 % of control; the T/C (endpoint: median survival time, dose: 50.0 mg/kg/injection, schedule: Q01DX011 (ip), vehicle: saline, higher = longer survival) is 106 % of control.
On to `Cn1c(Cl)nc2c(Cl)nc(Cl)nc21`, for which the T/C is 102 % of control (endpoint: median survival time, dose: 1.0 mg/kg/injection, schedule: Q01DX011 (ip), vehicle: saline with Tween-80, higher = longer survival); 106 % of control (endpoint: median survival time, dose: 2.0 mg/kg/injection, schedule: Q01DX011 (ip), vehicle: saline with Tween-80, higher = longer survival); 102 % of control (endpoint: median survival time, dose: 4.0 mg/kg/injection, schedule: Q01DX011 (ip), vehicle: saline with Tween-80, higher = longer survival); 104 % of control (endpoint: median survival time, dose: 8.0 mg/kg/injection, schedule: Q01DX011 (ip), vehicle: saline with Tween-80, higher = longer survival); 110 % of control (endpoint: median survival time, dose: 16.0 mg/kg/injection, schedule: Q01DX011 (ip), vehicle: saline with Tween-80, higher = longer survival).
On to `CCN1/C(=C/C(C)=C/c2sc3ccccc3[n+]2CC)Sc2ccccc21`, for which the T/C (endpoint: mean tumor weight (est.), dose: 50.0 micrograms/kg/injection, schedule: Q01DX011 (ip), vehicle: saline with Tween-80, higher = larger tumour) was 88 % of control; the T/C (endpoint: mean tumor weight (est.), dose: 100.0 micrograms/kg/injection, schedule: Q01DX011 (ip), vehicle: saline with Tween-80, higher = larger tumour) is 74 % of control; the T/C (endpoint: median survival time, dose: 50.0 micrograms/kg/injection, schedule: Q01DX011 (ip), vehicle: saline with Tween-80, higher = longer survival) was 91 % of control; the T/C (endpoint: median survival time, dose: 100.0 micrograms/kg/injection, schedule: Q01DX011 (ip), vehicle: saline with Tween-80, higher = longer survival) was 87 % of control.
Take `CC1OC(O[C@@H]2C=C3CC[C@@H]4[C@H](CC[C@]5(C)[C@@H](c6ccc(=O)oc6)CC[C@]45O)[C@@]3(C)CC2)C(O)C(O)C1O` (some centres undefined): the T/C runs as follows: (endpoint: mean tumor weight, dose: 0.31 mg/kg/injection, schedule: Q01DX011 (ip), vehicle: steriod suspending solution, higher = larger tumour) 92 % of control; (endpoint: mean tumor weight, dose: 0.62 mg/kg/injection, schedule: Q01DX011 (ip), vehicle: steriod suspending solution, higher = larger tumour) 114 % of control; (endpoint: mean tumor weight, dose: 1.25 mg/kg/injection, schedule: Q01DX011 (ip), vehicle: steriod suspending solution, higher = larger tumour) 36 % of control; (endpoint: mean tumor weight, dose: 2.5 mg/kg/injection, schedule: Q01DX011 (ip), vehicle: steriod suspending solution, higher = larger tumour) 50 % of control; (endpoint: median survival time, dose: 0.31 mg/kg/injection, schedule: Q01DX011 (ip), vehicle: steriod suspending solution, higher = longer survival) 122 % of control; (endpoint: median survival time, dose: 1.25 mg/kg/injection, schedule: Q01DX011 (ip), vehicle: steriod suspending solution, higher = longer survival) 113 % of control. For the same compound, the T/C (endpoint: median survival time, dose: 2.5 mg/kg/injection, schedule: Q01DX011 (ip), vehicle: steriod suspending solution, higher = longer survival) is 119 % of control.
In the case of `CCN1c2ccccc2C(Cl)(c2ccc(N(C)C)cc2)c2ccccc21`, the T/C is, setting by setting: (endpoint: mean tumor weight (est.), dose: 3.13 mg/kg/injection, schedule: Q01DX011 (ip), vehicle: saline, higher = larger tumour) 121 % of control; (endpoint: mean tumor weight (est.), dose: 6.25 mg/kg/injection, schedule: Q01DX011 (ip), vehicle: saline, higher = larger tumour) 50 % of control; under setting [3], 47 % of control.
Consider `FC(F)(F)c1ccc(-c2ccc(OCCN3CCCC3)cc2)cc1`, for which the T/C (endpoint: mean tumor weight, dose: 3.13 mg/kg/injection, schedule: Q01DX011 (ip), vehicle: saline, higher = larger tumour) was 57 % of control; the T/C (endpoint: mean tumor weight, dose: 6.25 mg/kg/injection, schedule: Q01DX011 (ip), vehicle: saline, higher = larger tumour) is 62 % of control; the T/C (endpoint: median survival time, dose: 3.13 mg/kg/injection, schedule: Q01DX011 (ip), vehicle: saline, higher = longer survival) is 104 % of control; the T/C (endpoint: median survival time, dose: 6.25 mg/kg/injection, schedule: Q01DX011 (ip), vehicle: saline, higher = longer survival) was 100 % of control.
`CC(=O)NC(CS)C(=O)O` (centres undefined): the T/C (endpoint: mean tumor weight (est.), dose: 750.0 mg/kg/injection, schedule: Q01DX009 (ip), vehicle: saline, higher = larger tumour) is 91 % of control and the T/C (endpoint: mean tumor weight (est.), dose: 1500.0 mg/kg/injection, schedule: Q01DX009 (ip), vehicle: saline, higher = larger tumour) is 86 % of control.
Consider `CN1CCN(c2ccc([N+](=O)[O-])c3no[n+]([O-])c23)CC1`, for which the T/C is 105 % of control (endpoint: median survival time, dose: 10.0 mg/kg/injection, schedule: Q02DX011 (ip), vehicle: saline with Tween-80, higher = longer survival) and 94 % of control (endpoint: median survival time, dose: 20.0 mg/kg/injection, schedule: Q02DX011 (ip), vehicle: saline with Tween-80, higher = longer survival).
As for `NC(=O)c1cc(N2CC2)c([N+](=O)[O-])cc1[N+](=O)[O-]`, the T/C by setting is: (endpoint: mean tumor weight, dose: 10.0 mg/kg/injection, schedule: Q01DX011 (ip), vehicle: saline with Tween-80, higher = larger tumour) 100 % of control; (endpoint: mean tumor weight, dose: 20.0 mg/kg/injection, schedule: Q01DX011 (ip), vehicle: saline with Tween-80, higher = larger tumour) 52 % of control; (endpoint: mean tumor weight, dose: 40.0 mg/kg/injection, schedule: Q01DX011 (ip), vehicle: saline with Tween-80, higher = larger tumour) 5 % of control; (endpoint: median survival time, dose: 10.0 mg/kg/injection, schedule: Q01DX011 (ip), vehicle: saline with Tween-80, higher = longer survival) 94 % of control; (endpoint: median survival time, dose: 20.0 mg/kg/injection, schedule: Q01DX011 (ip), vehicle: saline with Tween-80, higher = longer survival) 116 % of control; (endpoint: median survival time, dose: 40.0 mg/kg/injection, schedule: Q01DX011 (ip), vehicle: saline with Tween-80, higher = longer survival) 88 % of control.
With `Oc1ccc(I)c2cccnc12`, the T/C (endpoint: mean tumor weight (est.), dose: 100.0 mg/kg/injection, schedule: Q01DX011 (ip), vehicle: saline, higher = larger tumour) is 109 % of control and the T/C (endpoint: median survival time, dose: 100.0 mg/kg/injection, schedule: Q01DX011 (ip), vehicle: saline, higher = longer survival) is 95 % of control.
As to `Nc1nc(CCl)nc(Nc2ccccc2)n1`, the T/C under setting [1] is 61 % of control and the T/C under setting [2] was 100 % of control.
On to `CCn1cnc2c(=S)nc[nH]c21`, for which the T/C by setting is: (endpoint: mean tumor weight (est.), dose: 25.0 mg/kg/injection, schedule: Q01DX011 (ip), vehicle: Klucel (hydroxypropylcellulose) (HPC), higher = larger tumour) 110 % of control; (endpoint: mean tumor weight, dose: 1.56 mg/kg/injection, schedule: Q01DX011 (ip), vehicle: steriod suspending solution, higher = larger tumour) 81 % of control; (endpoint: mean tumor weight, dose: 6.25 mg/kg/injection, schedule: Q01DX011 (ip), vehicle: steriod suspending solution, higher = larger tumour) 86 % of control; (endpoint: median survival time, dose: 0.78 mg/kg/injection, schedule: Q01DX011 (ip), vehicle: Klucel (hydroxypropylcellulose) (HPC), higher = longer survival) 100 % of control; (endpoint: median survival time, dose: 1.56 mg/kg/injection, schedule: Q01DX011 (ip), vehicle: Klucel (hydroxypropylcellulose) (HPC), higher = longer survival) 104 % of control; (endpoint: median survival time, dose: 3.12 mg/kg/injection, schedule: Q01DX011 (ip), vehicle: Klucel (hydroxypropylcellulose) (HPC), higher = longer survival) 106 % of control. Also, the T/C (endpoint: median survival time, dose: 6.25 mg/kg/injection, schedule: Q01DX011 (ip), vehicle: Klucel (hydroxypropylcellulose) (HPC), higher = longer survival) is 102 % of control and 108 % of control; the T/C (endpoint: median survival time, dose: 12.5 mg/kg/injection, schedule: Q01DX011 (ip), vehicle: Klucel (hydroxypropylcellulose) (HPC), higher = longer survival) was 106 % of control; the T/C (endpoint: median survival time, dose: 25.0 mg/kg/injection, schedule: Q01DX011 (ip), vehicle: Klucel (hydroxypropylcellulose) (HPC), higher = longer survival) is 95 % of control and 104 % of control.
In the case of `CC(=O)OC(C1CO1)C(OC(C)=O)C1CO1` (centres undefined), the T/C was 105 % of control (endpoint: median survival time, dose: 5.0 mg/kg/injection, schedule: Q01DX011 (ip), vehicle: saline, higher = longer survival) and 121 % of control (endpoint: median survival time, dose: 10.0 mg/kg/injection, schedule: Q01DX011 (ip), vehicle: saline, higher = longer survival).

(Values after PubChem BioAssay AID272 (DTP/NCI, 2004).)
